Measurements published in patent US8410078B2, “Composition and methods to treat cardiac diseases” (University of Connecticut, priority 2006, dated 2013).

What was measured:
cardiac P2X receptor = assay: Whole-cell voltage clamp of P2 agonist-induced current in WT ventricular myocytes; assay type: cell-based, mouse; details: for Inhibition of the 2-meSATP-induced current by P2X receptor antagonists: PPADS 100 μM, NF449 300 nM, Brilliant Blue G 5 μM, ramp −100 to +50 mV
Excerpt: Mice displaying the CSQ model of severe cardiomyopathy and heart failure were bred and maintained by methods known in the art. The CSQ transgenic (TG) mice were originally provided by Dr. Larry Jones (Krannert Institute of Cardiology, Indiana University School of Medicine, Indiana), and developed hypertrophy followed by a lethal heart failure phenotype with death near the age of 3 months. Ventricular myocytes were obtained from 3-month old wild type (WT) and CSQ mice of either sex (26 WT, 47 TG) by an enzymatic dissociation procedure. Briefly, the hearts were rapidly excised from mice that had been anesthetized with pentobarbital and treated with 1000 Units of heparin. The aorta was cannulated and the heart perfused in a Langendorff apparatus with oxygenated (95% O2/5% CO2) Ca^2+-free solution (37° C.) for 5 minutes at a rate of 2.5 ml/min. The solution composition was: 126 mM NaCl, 4.4 mM KCl, 1.0 mM MgCl2, 18 mM NaHCO3, 11 mM Glucose, 4 mM HEPES, and 3 mM BDM (2,3-butanedione monoxime), (pH 7.3 adjusted with NaOH). Thereafter, the perfusing solution was changed to that containing 25 μM CaCl2 and liberase (70 μg/ml, Roche Molecular Biochemicals, Inc.) for 8-10 minutes. Cells were sedimented by gravity for 10-15 minutes and the pellet was resuspended in 200 μM Ca^2+-containing Tyrode's solution (containing 3 mM BDM), allowed to settle for 30 minutes at room temperature, and suspended with Tyrode's solution containing: 135 mM NaCl, 5.4 mM KCl, 1.0 mM CaCl2, 1.0 mM MgCl2, 10 mM HEPES and 10 mM dextrose (pH 7.4 adjusted with NaOH). The experiments were carried out at room temperature (22-23° C.) and were completed within 4-6 hours after myocyte isolation.
The whole cell patch-clamp technique was used for these experiments. Electrodes were prepared from borosilicate glass pipettes (1.2 mm i.d.) with a two step pulling procedure and filled with pipette solution. The pipette was connected via an Ag—AgCl wire to the head stage of an amplifier (List EPC-7, Medical Systems, Greenvale, N.Y.) controlled by a computer and Axon pClamp™ software. For voltage clamp experiments, the electrodes were filled with a solution containing: 135 mM cesium aspartate, 5 mM NaCl, 5 mM Mg2ATP, 10 mM HEPES, and 10 mM EGTA (pH 7.3 adjusted with CsOH) with or without 2 mM GDPβS. Electrode resistances were 2-4 MΩ. As soon as electrical contact was established, the superfusion medium was changed to a modified Tyrode's solution (5.4 mM KCl was omitted and 10 mM CsCl and 5 μM ouabain were added to Tyrode's solution to block K^+ currents and the Na/K pump current, respectively). In quantifying the P2 agonist-induced current, the Tyrode's solution contained the indicated concentration of each agent. In studying the effect of a P2 receptor antagonist, both agonist and antagonist were co-applied at the indicated concentrations. The voltage clamp protocol used was a ramp voltage protocol from −100 mV holding potential to +50 mV. The ramp protocol was applied to cells at 20 s intervals for 1 minute. Three current traces from −100 mV to 50 mV were averaged to construct the I-V relationship.

rat 5′-ectonucleotidase = target: T1, rat 5′-ectonucleotidase (Rattus norvegicus, UniProt P21588); details: cited from earlier work
T1 sequence (P21588 29-551): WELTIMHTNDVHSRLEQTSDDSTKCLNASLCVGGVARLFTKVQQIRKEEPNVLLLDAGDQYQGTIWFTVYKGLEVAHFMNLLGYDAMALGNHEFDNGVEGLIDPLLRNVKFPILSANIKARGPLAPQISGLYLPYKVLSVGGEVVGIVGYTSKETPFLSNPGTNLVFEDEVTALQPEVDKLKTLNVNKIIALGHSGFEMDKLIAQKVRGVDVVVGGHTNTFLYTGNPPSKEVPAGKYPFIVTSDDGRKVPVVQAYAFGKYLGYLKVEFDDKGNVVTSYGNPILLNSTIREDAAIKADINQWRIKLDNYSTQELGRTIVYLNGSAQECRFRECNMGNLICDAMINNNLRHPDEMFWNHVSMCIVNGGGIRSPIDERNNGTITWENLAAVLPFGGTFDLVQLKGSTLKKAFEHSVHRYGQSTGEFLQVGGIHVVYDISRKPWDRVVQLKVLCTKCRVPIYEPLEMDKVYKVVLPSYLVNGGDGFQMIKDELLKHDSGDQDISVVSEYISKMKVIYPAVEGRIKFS

[1] = test system: Binary P2X4 receptor/CSQ transgenic mice; assay: Lifespan of binary P2X4 receptor/CSQ transgenic mice given drug in drinking water; assay type: in vivo, mouse; details: 2 mg/ml in drinking water
Method: Metoprolol, a beta-adrenergic receptor blocker, was dissolved in drinking water at a concentration of 2 mg/ml. Binary P2X4 receptor/CSQ transgenic mice were fed either regular drinking water (n=8 mice) or drinking water containing the metoprolol (n=8 mice). […] Because overexpression of the P2X4 receptor rescues calsequestrin mice in a similar manner to MRS2339, administration of a beta blocker such as metoprolol with MRS2339 or another P2X receptor agonist should synergistically increase lifespan.

P2X4R Tg myocytes = assay: Cyclic AMP enzymatic immunoassay in P2X4R Tg myocytes; assay type: cell-based, mouse; details: 10 minutes, 2-meSATP at 10 μM
Method: Cyclic AMP was determined with an enzymatic immuno-assay kit (EIA, Direct Biotrak EIA kit) according to manufacturer's instructions. The method has been used to estimate cAMP level in dispersed mammalian cardiac ventricular myocytes. In brief, 3-month P2X4R Tg myocytes were isolated and plated in laminin-coated 96 well plate at a density of 1000 cells/well, equilibrated for 1 hour at 37° C., incubated with either phosphate-buffered saline (pH=7.4) or 10 μM 2-meSATP for 10 minutes, and processed for acetylation and subsequent cAMP EIA. cAMP levels were normalized to proteins in each individual well.

SMILES: CSc1nc(N)c2ncn([C@@H]3O[C@H](COP(=O)(O)OP(=O)(O)O)[C@@H](O)[C@H]3O)c2n1 [2-meSADP, 2-methylthioADP]
- Induction of current (cardiac P2X receptor; 3 μM, myocytes with a full response to 3 μM 2-meSATP): failed to induce any current

SMILES: Nc1ncnc2c1ncn2C1C(O)C(O)C2(COP(=O)(O)O)CC12 (stereo not drawn) [(N) methanocarba AMP]
- Rate of hydrolysis relative to the rate of hydrolysis of AMP (rat 5′-ectonucleotidase): 0.14%

SMILES: CCOc1ccc(Nc2ccc(/C(=C3C=C/C(=[N+](/CC)Cc4cccc(S(=O)(=O)[O-])c4)C=C/3C)c3ccc(N(CC)Cc4cccc(S(=O)(=O)[O-])c4)cc3C)cc2)cc1.[Na+] [Brilliant Blue G]
- Inhibition of the 2-meSATP-induced current by P2X receptor antagonists (cardiac P2X receptor; 2-meSATP 3 μM): very little inhibitory effect

SMILES: CNc1nc(I)nc2c1ncn2[C@H]1C[C@H](OP(=O)(O)O)[C@]2(COP(=O)(O)O)C[C@H]12 [MRS2500, (1′R,2′S,4′S,5′S)-4-(2-iodo-6-methylamino-purin-9-yl)-1-[(phosphate)-methyl]-2-(phosphate)-bicyclo[3.1.0]hexane]
- Block of the current evoked by 2-meSATP (cardiac P2X receptor; MRS2500 1 μM, 2-meSATP 3 μM, WT myocytes): could not block
- Block of the current evoked by MRS2339 (cardiac P2X receptor; data not shown): could not block

SMILES: COCCc1ccc(OCC(O)CNC(C)C)cc1 (stereo not drawn) [Metoprolol]
- Median lifespan [1]: 491 days

SMILES: O=C(Nc1cc(C(=O)Nc2ccc(S(=O)(=O)O)cc2S(=O)(=O)O)cc(C(=O)Nc2ccc(S(=O)(=O)O)cc2S(=O)(=O)O)c1)Nc1cc(C(=O)Nc2ccc(S(=O)(=O)O)cc2S(=O)(=O)O)cc(C(=O)Nc2ccc(S(=O)(=O)O)cc2S(=O)(=O)O)c1 [NF449, 4,4′,4″,4′″-[carbonylbis(imino-5,1,3-benzenetriyl-bis(carbonylimino))]tetrakis-1,3-benzenedisulfonic acid]
- Inhibition of the 2-meSATP-induced current by P2X receptor antagonists (cardiac P2X receptor; 2-meSATP 3 μM): very little inhibitory effect

SMILES: Cc1nc(N=Nc2ccc(S(=O)(=O)O)cc2S(=O)(=O)O)c(COP(=O)(O)O)c(C=O)c1O [PPADS]
- Inhibition of the 2-meSATP-induced current by P2X receptor antagonists (cardiac P2X receptor; 2-meSATP 3 μM): partially inhibit

SMILES: CC(C)NCC(O)c1ccc(O)c(O)c1 (stereo not drawn) [isoproterenol]
- Intracellular cyclic AMP level (P2X4R Tg myocytes): 16.6 ± 1.53 pmol/mg
